One experiment addresses T1, human ETA receptor (Homo sapiens, UniProt P25101).
T1 construct: CHO cell stably over-expressing the full length human ETA receptor; expressed in transfected cells
T1 sequence (P25101 21-427): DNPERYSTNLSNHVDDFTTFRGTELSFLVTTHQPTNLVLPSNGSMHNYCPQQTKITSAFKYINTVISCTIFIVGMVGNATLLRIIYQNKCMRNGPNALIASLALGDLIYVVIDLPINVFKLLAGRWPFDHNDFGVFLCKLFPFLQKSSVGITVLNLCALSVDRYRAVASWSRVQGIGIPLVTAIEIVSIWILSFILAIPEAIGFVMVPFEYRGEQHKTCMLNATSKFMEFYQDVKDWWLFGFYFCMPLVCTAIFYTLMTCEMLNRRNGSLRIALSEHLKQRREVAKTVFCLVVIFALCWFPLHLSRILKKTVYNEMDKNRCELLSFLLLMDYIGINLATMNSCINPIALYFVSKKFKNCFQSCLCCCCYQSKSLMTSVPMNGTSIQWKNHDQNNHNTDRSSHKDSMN
Description: ETA functional assay (FLIPR Ca efflux, Endothelin-1 at EC80). Type of experiment: cell-based. Particulars: CHO cells over-expressing full length human ETA receptor; Endothelin-1 as agonist at EC80. As for the experimental part: (§1) CHO cell stably over-expressing the full length human ETA receptor was cultured in DMEM (Gibco) with 10% FCS (Hyclone) and selection maintained using 0.5 mg/ml G418 (Gibco). Cell at 70% confluence were trypsnised, resuspended in media and counted. 20,000 cells/well were plated into black polystyrene 384-well plates with transparent bottoms and allowed 16 hours to adhere. The cells were loaded with Flou-4 (TEFLABS, USA) dye in BSS (Gibco) for 1 hour and then washed in HBSS and 0.6 μl of diluted compounds in DMSO added to the cells in 30 μl of HBSS in Multimek liquid handling system (Beckman, USA). The cells were then placed in the Fluorometric Imaging Plate Readers (FLIPR, Molecular Devices, USA) and 20 μl of Endothelin-1 peptide as agonist in HBSS (at EC80) was added in the instrument.
(§2) The Ca efflux was followed for 2 mins and the maximum height of the peak was measured at various compound concentrations and plotted according to the equation
(§3) and IC50 estimated wherein A is the bottom plateau of the curve i.e. the final minimum y value B is the top of the plateau of the curve i.e. the final maximum y value C is the x value at the middle of the curve. This represents the log EC50 value when A+B=100 D is the slope factor. x is the original known x values. y is the original known y values.

The target of the next experiment is T2, human AT1 receptor (Homo sapiens, UniProt P30556).
T2 construct: CHO cell stably over-expressing the full length human AT1 receptor; expressed in transfected cells
T2 sequence (P30556 1-359): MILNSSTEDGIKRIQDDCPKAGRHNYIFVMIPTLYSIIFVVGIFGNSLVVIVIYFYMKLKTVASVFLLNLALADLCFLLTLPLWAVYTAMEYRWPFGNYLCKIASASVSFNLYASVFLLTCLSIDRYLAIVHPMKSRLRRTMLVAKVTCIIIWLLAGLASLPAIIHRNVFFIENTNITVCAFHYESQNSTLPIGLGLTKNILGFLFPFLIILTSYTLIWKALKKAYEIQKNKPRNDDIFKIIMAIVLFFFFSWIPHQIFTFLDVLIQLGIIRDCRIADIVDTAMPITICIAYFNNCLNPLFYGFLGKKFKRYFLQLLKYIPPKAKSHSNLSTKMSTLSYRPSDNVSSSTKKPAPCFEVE
Description: AT1 functional assay (FLIPR Ca efflux, Angiotensin-II at EC80). Type of experiment: cell-based. Particulars: CHO cells over-expressing full length human AT1 receptor; Angiotensin-II as agonist at EC80. How it is done:
as §1, with “human AT1” for “human ETA”, “in HBSS” for “in BSS”, “30 μd” for “30 μl”, “of Angiotensin-II” for “of Endothelin-1”, “agonist (at EC80)” for “agonist”, “HBSS” for “HBSS (at EC80)”
as §2, §3

As a reminder, the IC50 is the concentration needed to halve the response being measured. High values mean lower potency, low ones higher potency.

Molecules are shown by their SMILES.

Take `CCOCc1cc(Cn2nc(C)c3c(C)nc(CC)cc32)ccc1-c1cc(C)sc1S(=O)(=O)Nc1noc(C)c1C` [Example 6, 3-[2-Ethoxymethyl-4-(6-ethyl-3,4-dimethyl-pyrazolo[4,3-c]pyridine-1-ylmethyl)-phenyl]-5-methyl-thiophene-2-sulphonic acid(4,5-dimethyl-isoxazol-3-yl)-amide]: the figures for the IC50 at human ETA receptor and on human AT1 receptor were 562 nM and 22.9 nM, respectively.
In the same order, the values of `CCOc1cc(=O)n(Cc2ccc(-c3cc(C)sc3S(=O)(=O)Nc3noc(C)c3C)c(C)c2)c2cc(CC)nc(CC)c12` [Example 39, 3-[4-(4-Ethoxy-5,7-diethyl-2-oxo-2H-[1,6]naphthyridin-1-ylmethyl)-2-methyl-phenyl]-5-methyl-thiophene-2-sulfonic acid (4,5-dimethyl-isoxazol-3-yl)-amide] are 781 nM and 25.1 nM.
For `CCOCc1cc(Cn2nc(-c3ccc(OC)cc3)c3c(C)nc(CC)cc32)ccc1-c1cc(C)sc1S(=O)(=O)Nc1noc(C)c1C` [Example 23, 3-{2-Ethoxymethyl-4-[6-ethyl-3-(4-methoxy-phenyl)-4-methyl-pyrazolo[4,3-c]pyridin-1-ylmethyl]-phenyl}-5-methyl-thiophene-2-sulfonic acid (4,5-dimethyl-isoxazol-3-yl)-amide], the IC50 at human ETA receptor was determined as 248 nM; on human AT1 receptor, 22.1 nM.
With `CCc1nc(C)cc2c1c(CC)nn2Cc1ccc(-c2cc(C)sc2S(=O)(=O)Nc2noc(C)c2C)c(COC)c1` [Example 38, 3-[4-(3,4-Diethyl-6-methyl-pyrazolo[4,3-c]pyridin-1-ylmethyl)-2-methoxymethyl-phenyl]-5-methyl-thiophene-2-sulfonic acid (4,5-dimethyl-isoxazol-3-yl)-amide], the IC50 came to 1040 nM on human ETA receptor and 17.2 nM on human AT1 receptor.

These data come from US20100010035A1, “Novel Dual Action Receptors Antagonists (Dara) at the Ati and Eta Receptors” (priority 2006, published 2010).
